Data taken from patent US20110251143A1, “STABLE ELSAMITRUCIN SALT FORMULATIONS” (Spectrum Pharmaceuticals, Inc., priority 2007, published 2011).

Experiments:
[1] = system: SK-MES-1 human non-small cell lung carcinoma; assay: MTT cell growth inhibition, SK-MES-1; type: cell-based; conditions: Homo sapiens; SK-MES-1, MTT, 5-10 days
Method: (§1) The following experiment confirms that the elsamitrucin salts made in accordance with the teachings of the present disclosure retain their in vitro anti-neoplastic activity when compared to elsamitrucin base. Elsamitrucin and elsamitrucin tosylate were tested in vitro using: B16F10 (murine […]), HCT 116 (human colon), HT29 (human colon) and SK-MES-1 (human non-small cell lung carcinoma). Cell growth inhibition was evaluated in 96-well micro-culture plates with a semi-automated MTT (3-(4,5-dimethylthiazol-2-yl)-2,5-diphenyltetrazolium bromide) assay. […]
(§2) Cell culture plates seeded with test cells and various concentrations of elsamitrucin solutions were placed in a humidified incubator at 37° C., with CO2 and 95% air for 5-10 days. […] Absorbance was monitored at a wavelength of 595 nm, and at a reference wavelength of 650 nm, using a TECAN® GENios mocroplate reader. In all experiments, absorbance data was acquired for each agent at two overlapping concentration ranges. […]
(§3) The results of each test were stored and imported into PRISM® 3.03 for graphical analysis and determination of IC50 values. All results were graphed as a percentage of controlled absorbance versus the drug concentration. […]

[2] = stability study of Elsamitrucin F2 RTU, impurities profile by HPLC;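 note: formulation kept in nitrogen-flushed sealed amber vials, sampled at time points, diluted to roughly 0.1 mg/mL and analysed by gradient HPLC on a C18 column, water/acetonitrile with trifluoroacetic acid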
Method: Design of the Stability Study: 250 mL of Elsamitrucin Tosylate stock solution (10 mg/mL free base, 4.77% Mannitol, pH 4.0) was prepared. 80×5 mL amber serum vials were filled with 2.5 mL of the Elsamitrucin Tosylate stock solution, flushed with nitrogen and sealed with stoppers. These sealed vials, in both upright and inverted positions, were stored in the following temperature cabinets at 4, 25, 40 and 60° C., respectively. […] Samples were removed for pH measurement and high performance liquid chromatography (HPLC) analysis at the various time points. At 60° C., measurements were made at 0, 2, 7, 10, 14 days. At 40° C., measurements were made at 0, 7, 14, 28, 38, 64, 77, 84 days. At 25° C., measurements were made at 0, 7, 14, 28, 64, 84 days. At 4° C., measures were made at 0, 7, 14, 28, 64, 84 days.
For the present stability study HPLC weight/weight assay of elsamitrucin was done in addition to the determination of related impurities. The reagents for the HPLC assay are as follows—HPLC grade acetonitrile and trifluoroacetic acid (Lot #44093418) were obtained from EMD Science. Water was purified with Millipore Milli-Q system. The apparatus was the chromatographic system which consisted of a Waters Alliance 2695 separation module equipped with a column heater, an autosampler and a Waters 2996 photodiode array detector. Data acquisition was controlled by Waters Empower Pro 2 software. As the column a Cadenza Cd-C18, 3 μm, 4.6×150 mm (Silverstone Sciences) was used. Detection was made at 267 nm. Mobile phase A contained water with 0.1% trifluoroacetic acid. 2 mL of trifluoroacetic acid was pipetted to 2000 mL of water. Mobile phase B contained acetonitrile with 0.08% trifluoroacetic acid. 1 mL of trifluoroacetic acid was pipetted to 1250 mL of acetonitrile. 1 L of water was mixed thoroughly with 1 L of acetonitrile.
HPLC analysis was run with a gradient at flow rate equal to 1.0 mL/min. The oven temperature was set at 40° C. The autosampler temperature was at 25° C. The injection volume was 10 μL. Sample Diluent—Acetonitrile/water (50/50, v/v): 1 L of water was mixed thoroughly with 1 L of acetonitrile. Sample Blank—Acetonitrile/water (50/50, v/v): Sample Diluent was used as Sample Blank. Standard Solution—˜0.1 mg/mL of Elsamitrucin: 26.32 mg of Elsamitrucin Tosylate was accurately weighed and dissolved in a 200 mL of Sample Diluent in a 200 mL volumetric flask. Sample Solution Preparation (one vial per time point): 2 mL of Elsamitrucin RTU solution was pipetted to a 20 mL volumetric flask and diluted with 18 mL of Sample Diluent. 2 mL of the diluted solution was further diluted with 18 mL of Sample Diluent in a 20 mL volumetric flask to give the final analytical sample (with concentration at about 0.1 mg/mL). The retention time for Elsamitrucin was about 11.7 minutes.

[3] = system: HCT 116 human colon carcinoma; assay: MTT cell growth inhibition, HCT 116; type: cell-based; conditions: Homo sapiens; HCT 116, MTT, 5-10 days
Method: as §1, §2, §3

MCF7 = conditions: ER+ MCF7 cell line; cited from earlier work
[4] = patients with refractory/relapsed non-Hodgkin's lymphoma; cited from earlier work
ER− tumors = conditions: clinical specimens; cited from earlier work
ER+ tumors = conditions: clinical specimens; cited from earlier work
MDA-MB-231 = conditions: ER− MDA-MB-231 cell line; cited from earlier work
MCF7DX = MCF7DX subline; cited from earlier work
[5] = system: B16F10 murine melanoma cells; assay: MTT cell growth inhibition, B16F10; type: cell-based; conditions: Mus musculus, B16-F10, 5-10 days
Method: as §1, §2, §3

[6] = system: HT29 human colon carcinoma; assay: MTT cell growth inhibition, HT29; type: cell-based; conditions: Homo sapiens, HT-29, 5-10 days
Method: as §1, §2, §3

CO[C@H]1[C@@H](O)[C@@H](C)OC(O[C@H]2[C@H](Oc3cccc4c(O)c5c(=O)oc6ccc(C)c7c(=O)oc(c34)c5c67)O[C@H](C)[C@H](O)[C@]2(C)O)[C@@H]1N (stereo partly drawn) [Elsamitrucin, benzo(h)(1)benzopyrano(5,4,3-cde)(1)ebnzopyran-5,12-dione,10((2-O-(2-amino-2,6-dideoxy-3-O-methyl-alpha-D-galactopyranosyl)-6-deoxy-3-C-methyl-beta-D-galactopyranosyl)oxy)-6-hydroxy-1-methyl]
IC50 [1]: 42 nM | Area Percent of HPLC peak ([2]; 10 mg/mL ELSA RTU Formulation 2, inverted, 5° C., Day 7): 97.89 Area Percent | Area Percent of HPLC peak ([2]; 10 mg/mL ELSA RTU Formulation 2, inverted, 5° C., Day 14): 97.70 Area Percent | Area Percent of HPLC peak ([2]; 10 mg/mL ELSA RTU Formulation 2, inverted, 5° C., Day 28): 98.41 Area Percent | Area Percent of HPLC peak ([2]; 10 mg/mL ELSA RTU Formulation 2, inverted, 5° C., Day 64): 97.54 Area Percent | Area Percent of HPLC peak ([2]; 10 mg/mL ELSA RTU Formulation 2, inverted, 5° C., Day 84): 98.15 Area Percent | Area Percent of HPLC peak ([2]; 10 mg/mL ELSA RTU Formulation 2, inverted, 5° C., Initial): 97.63 Area Percent | Area Percent of HPLC peak ([2]; 10 mg/mL ELSA RTU Formulation 2, inverted, 25° C., Day 7): 97.71 Area Percent | Area Percent of HPLC peak ([2]; 10 mg/mL ELSA RTU Formulation 2, inverted, 25° C., Day 14): 97.73 Area Percent | Area Percent of HPLC peak ([2]; 10 mg/mL ELSA RTU Formulation 2, inverted, 25° C., Day 28): 98.37 Area Percent | Area Percent of HPLC peak ([2]; 10 mg/mL ELSA RTU Formulation 2, inverted, 25° C., Day 64): 97.42 Area Percent | Area Percent of HPLC peak ([2]; 10 mg/mL ELSA RTU Formulation 2, inverted, 25° C., Day 84): 97.28 Area Percent | Area Percent of HPLC peak ([2]; 10 mg/mL ELSA RTU Formulation 2, inverted, 25° C., Initial): 97.63 Area Percent | Area Percent of HPLC peak ([2]; 10 mg/mL ELSA RTU Formulation 2, inverted, 40° C., Day 7): 97.75 Area Percent | Area Percent of HPLC peak ([2]; 10 mg/mL ELSA RTU Formulation 2, inverted, 40° C., Day 14): 97.64 Area Percent | Area Percent of HPLC peak ([2]; 10 mg/mL ELSA RTU Formulation 2, inverted, 40° C., Day 28): 97.70 Area Percent | Area Percent of HPLC peak ([2]; 10 mg/mL ELSA RTU Formulation 2, inverted, 40° C., Day 38): 98.04 Area Percent | Area Percent of HPLC peak ([2]; 10 mg/mL ELSA RTU Formulation 2, inverted, 40° C., Day 64): 97.04 Area Percent | Area Percent of HPLC peak ([2]; 10 mg/mL ELSA RTU Formulation 2, inverted, 40° C., Day 77): 96.84 Area Percent | Area Percent of HPLC peak ([2]; 10 mg/mL ELSA RTU Formulation 2, inverted, 40° C., Day 84): 96.64 Area Percent | Area Percent of HPLC peak ([2]; 10 mg/mL ELSA RTU Formulation 2, inverted, 40° C., Initial): 97.63 Area Percent | Area Percent of HPLC peak ([2]; 10 mg/mL ELSA RTU Formulation 2, inverted, 60° C., Day 2): 97.73 Area Percent | Area Percent of HPLC peak ([2]; 10 mg/mL ELSA RTU Formulation 2, inverted, 60° C., Day 7): 96.86 Area Percent | Area Percent of HPLC peak ([2]; 10 mg/mL ELSA RTU Formulation 2, inverted, 60° C., Day 10): 96.82 Area Percent | Area Percent of HPLC peak ([2]; 10 mg/mL ELSA RTU Formulation 2, inverted, 60° C., Day 14): 96.03 Area Percent | Area Percent of HPLC peak ([2]; 10 mg/mL ELSA RTU Formulation 2, inverted, 60° C., Initial): 97.63 Area Percent | Area Percent of HPLC peak ([2]; 10 mg/mL ELSA RTU Formulation 2, upright, 5° C., Day 7): 97.86 Area Percent | Area Percent of HPLC peak ([2]; 10 mg/mL ELSA RTU Formulation 2, upright, 5° C., Day 14): 97.63 Area Percent | Area Percent of HPLC peak ([2]; 10 mg/mL ELSA RTU Formulation 2, upright, 5° C., Day 28): 97.63 Area Percent | Area Percent of HPLC peak ([2]; 10 mg/mL ELSA RTU Formulation 2, upright, 5° C., Day 64): 97.39 Area Percent | Area Percent of HPLC peak ([2]; 10 mg/mL ELSA RTU Formulation 2, upright, 5° C., Day 84): 97.33 Area Percent | Area Percent of HPLC peak ([2]; 10 mg/mL ELSA RTU Formulation 2, upright, 5° C., Initial): 97.63 Area Percent | Area Percent of HPLC peak ([2]; 10 mg/mL ELSA RTU Formulation 2, upright, 40° C., Day 7): 97.77 Area Percent | Area Percent of HPLC peak ([2]; 10 mg/mL ELSA RTU Formulation 2, upright, 40° C., Day 14): 97.71 Area Percent | Area Percent of HPLC peak ([2]; 10 mg/mL ELSA RTU Formulation 2, upright, 40° C., Day 28): 97.62 Area Percent | Area Percent of HPLC peak ([2]; 10 mg/mL ELSA RTU Formulation 2, upright, 40° C., Day 38): 97.76 Area Percent | Area Percent of HPLC peak ([2]; 10 mg/mL ELSA RTU Formulation 2, upright, 40° C., Day 64): 96.86 Area Percent | Area Percent of HPLC peak ([2]; 10 mg/mL ELSA RTU Formulation 2, upright, 40° C., Day 77): 96.80 Area Percent | Area Percent of HPLC peak ([2]; 10 mg/mL ELSA RTU Formulation 2, upright, 40° C., Day 84): 97.31 Area Percent | Area Percent of HPLC peak ([2]; 10 mg/mL ELSA RTU Formulation 2, upright, 40° C., Initial): 97.63 Area Percent | Area Percent of HPLC peak ([2]; 10 mg/mL ELSA RTU Formulation 12, upright, 25° C., Day 7): 97.86 Area Percent | Area Percent of HPLC peak ([2]; 10 mg/mL ELSA RTU Formulation 12, upright, 25° C., Day 14): 97.67 Area Percent | Area Percent of HPLC peak ([2]; 10 mg/mL ELSA RTU Formulation 12, upright, 25° C., Day 28): 98.32 Area Percent | Area Percent of HPLC peak ([2]; 10 mg/mL ELSA RTU Formulation 12, upright, 25° C., Day 64): 97.68 Area Percent | Area Percent of HPLC peak ([2]; 10 mg/mL ELSA RTU Formulation 12, upright, 25° C., Day 84): 98.08 Area Percent | Area Percent of HPLC peak ([2]; 10 mg/mL ELSA RTU Formulation 12, upright, 25° C., Initial): 97.63 Area Percent | Area Percent of HPLC peak ([2]; 10 mg/mL ELSA RTU Formulation 12, upright, 60° C., Day 2): 97.83 Area Percent | Area Percent of HPLC peak ([2]; 10 mg/mL ELSA RTU Formulation 12, upright, 60° C., Day 7): 96.93 Area Percent | Area Percent of HPLC peak ([2]; 10 mg/mL ELSA RTU Formulation 12, upright, 60° C., Day 10): 95.99 Area Percent | Area Percent of HPLC peak ([2]; 10 mg/mL ELSA RTU Formulation 12, upright, 60° C., Day 14): 95.79 Area Percent | Area Percent of HPLC peak ([2]; 10 mg/mL ELSA RTU Formulation 12, upright, 60° C., Initial): 97.63 Area Percent | IC50 [3]: 74 nM | IC50 antiproliferative effect (MCF7): 0.25 micrograms/ml | elsamtrucin-associated toxicity [4]: relatively mild | minimal inhibiting concentrations (ER− tumors): 3.5 micrograms/ml | minimal inhibiting concentrations (ER+ tumors): 0.1 micrograms/ml | IC50 antiproliferative effect (MDA-MB-231): 0.21 micrograms/ml | cross-resistance to DX (MCF7DX): cross-resistant | IC50 [5]: 24 nM | IC50 [6]: 95 nM
